Reference: patent US9447136B2, “Semisynthetic derivatives of Nystatin A1” (BLIRT S.A., priority 2012, dated 2016)
Like-named read-outs stand apart in the source and are kept apart here.

How the values were obtained:
LLC-PK1 = test: Cytotoxic activity against mammalian cells in tissue culture (MTT); format: cell-based, pig
Outline: (§1)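 Cells at 1.2×10^4/well were exposed to serial 2× DMSO dilutions for 120 h at 37 °C: CCRF-CEM in RPMI 1640 + 10% FBS, HepG2 in MEM + 10% FBS, LLC-PK1 in Medium 199 + 3% FBS. MTT was added for 4 h and A540 read. IC50 is the concentration halving A540 versus DMSO control.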

[1] = tested on: Candida pseudotropicalis KKP 324; test: Antifungal activity in vitro, serial dilution in RPMI 1640; format: cell-based; settings: Table 2B
Outline: (§2)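 Serial dilution, RPMI 1640 pH 7.0 (M27-A2 reference method); A531 read-out. IC50 = interpolated conc. at 50% of control A531; MIC = lowest conc. with A531 ≤20% of control.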

Candida krusei DSM 6128 = test: as above; format: cell-based; settings: Table 2A; RPMI 1640, pH 7.0
Outline: as §2

[2] = tested on: Trichoderma viride LOCK E159; test: as above; format: cell-based; settings: Table 2B
Outline: as §2

[3] = tested on: Candida dubliniensis CBS 7987; test: as above; format: cell-based; settings: Table 2B
Outline: as §2

[4] = tested on: Candida stellatoidea CBS 1905; test: as above; format: cell-based; settings: Table 2B
Outline: as §2

[5] = tested on: Candida albicans ATCC 10231; test: as above; format: cell-based; settings: for Antifungal activity Candida albicans ATCC 10231 IC50 / Antifungal activity Candida albicans ATCC 10231 MIC: Table 2A, RPMI 1640, pH 7.0; for Antifungal activity Candida albicans ATCC 10231 IC50: A531 50% of control; for Antifungal activity Candida albicans ATCC 10231 MIC: A531 at most 20% of control; for MIC Candida albicans ATCC 10231: Table 2B
Outline: as §2

[6] = tested on: Candida lipolytica KKP 322; test: as above; format: cell-based; settings: Table 2B
Outline: as §2

[7] = tested on: Candida quilliermondii DSM 11947; test: as above; format: cell-based; settings: Table 2B
Outline: as §2

Candida arborea KKP 319 = test: as above; format: cell-based; settings: Table 2B
Outline: as §2

[8] = tested on: Saccharomyces cerevisiae ATCC 9763; test: as above; format: cell-based; settings: for Antifungal activity Saccharomyces cerevisiae ATCC 9763 MIC: Table 2A, RPMI 1640, pH 7.0, A531 at most 20% of control; for MIC Saccharomyces cerevisiae ATCC 9763: Table 2B
Outline: as §2

[9] = tested on: Candida glabrata DSM 11226; test: as above; format: cell-based; settings: Table 2A; RPMI 1640, pH 7.0
Outline: as §2

[10] = tested on: Candida tropicalis KKP 334; test: as above; format: cell-based; settings: Table 2A; RPMI 1640, pH 7.0
Outline: as §2

[11] = tested on: Candida parapsilosis DSM 5784; test: as above; format: cell-based; settings: Table 2B
Outline: as §2

[12] = tested on: Aspergillus niger LOCK E201; test: as above; format: cell-based; settings: Table 2B
Outline: as §2

Candida albicans F2 = test: Antifungal activity towards resistant (MDR) strains; format: cell-based; settings: fluconazole sensitive, parent strain for F5
Description: (§3) The determination of antifungal activity was performed by the serial dilutions method in buffered RPMI 1640 medium, in a 96-wells microplates, according to the standard procedure (National Committee for Clinical Laboratory Standards. Reference method for broth dilution antifungal susceptibility testing of yeast, approved standard, 2nd ed. M27-A2 vol. 22 Wayne, Pa., 2002). The optical density of cells suspension was measured using a microplates reader (Victor^3, Perkin-Elmer) at the wavelength λ=660 nm (A660). On the basis of received results the diagrams on interrelation between the A660 value and the concentration of tested compound were made. From these graphs MIC values were read, that are the concentrations of tested compounds, in the presence at which A660 value is at most 20% of A660 value measured in control sample.

Candida albicans STY7 = test: as above; format: cell-based; settings: 5674 mutant derivative, deletion of CDR2
Description: as §3

Candida albicans Gu4 = test: as above; format: cell-based; settings: fluconazole sensitive, parent strain for Gu5
Description: as §3

Candida albicans F5 = test: as above; format: cell-based; settings: fluconazole-resistant due to the overexpression of CaMDR1 and ERG11
Description: as §3

Candida albicans STY19 = test: as above; format: cell-based; settings: 5674 mutant derivative, deletion of CDR1
Description: as §3

Candida albicans B4 = test: as above; format: cell-based; settings: fluconazole-resistant due to the overexpression of CaMDR1
Description: as §3

Candida albicans Gu5 = test: as above; format: cell-based; settings: fluconazole-resistant due to the overexpression of CDR1 and CDR2
Description: as §3

Candida albicans 5674 = test: as above; format: cell-based; settings: C. albicans 5674 overexpressing CDR1 and CDR2
Description: as §3

Candida albicans STY31 = test: as above; format: cell-based; settings: 5674 mutant derivative, deletion of CDR1 and CDR2
Description: as §3

Candida albicans B3 = test: as above; format: cell-based; settings: fluconazole sensitive, parent strain for B4
Description: as §3

CCRF-CEM = test: Cytotoxic activity against mammalian cells in tissue culture (MTT); format: cell-based, human
Outline: as §1

HepG2 = test: as above; format: cell-based, human
Outline: as §1

Human erythrocytes = test: Hemotoxicity (hemolytic activity)
Outline: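 Human erythrocytes in saline (2×10^7/ml) were incubated with serially diluted compound at 37 °C for 30 min, then centrifuged. Released hemoglobin was read as A540 against 0.1% Triton X-100 as full hemolysis. EH50 is the interpolated concentration giving 50% of the control A540.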

CCCN(CCC)[C@@H]1[C@H](O)[C@H](O[C@H]2/C=C/C=C/C=C/C=C/CC/C=C/C=C/[C@H](C)[C@@H](O)[C@@H](C)[C@H](C)OC(=O)C[C@H](O)C[C@H](O)C[C@H](O)CC[C@@H](O)[C@H](O)C[C@]3(O)C[C@H](O)[C@@H](C(=O)O)[C@H](C2)O3)O[C@H](C)[C@H]1O [Compound N22, N,N-di-n-propylnystatin A1]
3.14 µg/mL: Antifungal activity Candida albicans ATCC 10231 IC50 [5]
202.34 µg/mL: EH10 (Human erythrocytes)
>100 µg/mL: Cytotoxicity IC50 LLC-PK1 (LLC-PK1) | Cytotoxicity IC50 CCRF-CEM (CCRF-CEM)
2 µg/mL: MIC Candida dubliniensis CBS 7987 [3] | Antifungal activity Saccharomyces cerevisiae ATCC 9763 MIC [8] | MIC Saccharomyces cerevisiae ATCC 9763 [8]
4 µg/mL: MIC Candida pseudotropicalis KKP 324 [1] | MIC Candida stellatoidea CBS 1905 [4] | Antifungal activity Candida albicans ATCC 10231 MIC [5] | MIC Candida albicans ATCC 10231 [5] | MIC Candida lipolytica KKP 322 [6] | Antifungal activity Candida glabrata DSM 11226 MIC [9] | Antifungal activity Candida tropicalis KKP 334 MIC [10] | MIC Candida albicans F2 (Candida albicans F2) | MIC Candida albicans STY7 (Candida albicans STY7) | MIC Candida albicans F5 (Candida albicans F5) | MIC Candida albicans STY19 (Candida albicans STY19) | MIC Candida albicans 5674 (Candida albicans 5674) | MIC Candida albicans STY31 (Candida albicans STY31)
82.9 ± 19.87 µg/mL: Cytotoxicity IC50 HepG2 (HepG2)
8 µg/mL: Antifungal activity Candida krusei DSM 6128 MIC (Candida krusei DSM 6128) | MIC Trichoderma viride LOCK E159 [2] | MIC Candida quilliermondii DSM 11947 [7] | MIC Candida arborea KKP 319 (Candida arborea KKP 319) | MIC Candida parapsilosis DSM 5784 [11] | MIC Aspergillus niger LOCK E201 [12] | MIC Candida albicans Gu4 (Candida albicans Gu4) | MIC Candida albicans B4 (Candida albicans B4) | MIC Candida albicans Gu5 (Candida albicans Gu5) | MIC Candida albicans B3 (Candida albicans B3)

CC1OC(O[C@H]2/C=C/C=C/C=C/C=C/CC/C=C/C=C/[C@H](C)[C@@H](O)[C@@H](C)[C@H](C)OC(=O)C[C@H](O)C[C@H](O)C[C@H](O)CC[C@@H](O)[C@H](O)CC3(O)C[C@H](O)[C@@H](C(=O)O)[C@H](C2)O3)C(O)C(NC(=O)[C@H](N)CC(=O)OC(C)(C)C)C1O (stereo partly drawn) [Compound N41, N-D-(O-tert-butyl)asparagylnystatin A1]
4 µg/mL: MIC Candida pseudotropicalis KKP 324 [1] | MIC Candida stellatoidea CBS 1905 [4] | Antifungal activity Saccharomyces cerevisiae ATCC 9763 MIC [8] | MIC Saccharomyces cerevisiae ATCC 9763 [8] | Antifungal activity Candida tropicalis KKP 334 MIC [10]
0.5 µg/mL: MIC Candida albicans STY19 (Candida albicans STY19)
16 µg/mL: MIC Candida albicans F2 (Candida albicans F2) | MIC Candida albicans STY7 (Candida albicans STY7) | MIC Candida albicans F5 (Candida albicans F5) | MIC Candida albicans B4 (Candida albicans B4) | MIC Candida albicans 5674 (Candida albicans 5674) | MIC Candida albicans STY31 (Candida albicans STY31)
8 µg/mL: Antifungal activity Candida krusei DSM 6128 MIC (Candida krusei DSM 6128) | Antifungal activity Candida albicans ATCC 10231 MIC [5] | MIC Candida albicans ATCC 10231 [5] | MIC Candida lipolytica KKP 322 [6] | MIC Candida quilliermondii DSM 11947 [7] | MIC Candida arborea KKP 319 (Candida arborea KKP 319) | Antifungal activity Candida glabrata DSM 11226 MIC [9] | MIC Candida parapsilosis DSM 5784 [11] | MIC Aspergillus niger LOCK E201 [12] | MIC Candida albicans Gu4 (Candida albicans Gu4) | MIC Candida albicans Gu5 (Candida albicans Gu5) | MIC Candida albicans B3 (Candida albicans B3)
4.69 µg/mL: Antifungal activity Candida albicans ATCC 10231 IC50 [5]
>100 µg/mL: Cytotoxicity IC50 LLC-PK1 (LLC-PK1) | Cytotoxicity IC50 CCRF-CEM (CCRF-CEM) | Cytotoxicity IC50 HepG2 (HepG2)
32 µg/mL: MIC Trichoderma viride LOCK E159 [2]
2 µg/mL: MIC Candida dubliniensis CBS 7987 [3]
0.15%: % of hemolysis at the concentration 60 μg ml^−1 (Human erythrocytes)

N-[L-(N,N-dimethyl)phenylalanyl]nystatin A1 [Compound N45]
16 µg/mL: MIC Trichoderma viride LOCK E159 [2]
7.11%: % of hemolysis at the concentration 300 μg ml^−1 (Human erythrocytes)
4 µg/mL: MIC Candida pseudotropicalis KKP 324 [1] | MIC Candida stellatoidea CBS 1905 [4] | Antifungal activity Candida albicans ATCC 10231 MIC [5] | MIC Candida albicans ATCC 10231 [5] | MIC Candida quilliermondii DSM 11947 [7] | Antifungal activity Candida glabrata DSM 11226 MIC [9] | Antifungal activity Candida tropicalis KKP 334 MIC [10] | MIC Candida parapsilosis DSM 5784 [11] | MIC Candida albicans Gu4 (Candida albicans Gu4) | MIC Candida albicans STY19 (Candida albicans STY19) | MIC Candida albicans B4 (Candida albicans B4) | MIC Candida albicans Gu5 (Candida albicans Gu5) | MIC Candida albicans B3 (Candida albicans B3)
>100 µg/mL: Cytotoxicity IC50 LLC-PK1 (LLC-PK1; LLC-PK1, 120 h, MTT) | Cytotoxicity IC50 CCRF-CEM (CCRF-CEM; CCRF-CEM, 120 h, MTT) | Cytotoxicity IC50 HepG2 (HepG2; HepG2, 120 h, MTT)
>300 µg/mL: EH10 (Human erythrocytes; human erythrocytes, concentration causing 10% of hemolysis)
2.83 µg/mL: Antifungal activity Candida albicans ATCC 10231 IC50 [5]
8 µg/mL: Antifungal activity Candida krusei DSM 6128 MIC (Candida krusei DSM 6128) | MIC Candida lipolytica KKP 322 [6] | MIC Candida arborea KKP 319 (Candida arborea KKP 319) | MIC Aspergillus niger LOCK E201 [12] | MIC Candida albicans F2 (Candida albicans F2) | MIC Candida albicans STY7 (Candida albicans STY7) | MIC Candida albicans F5 (Candida albicans F5) | MIC Candida albicans 5674 (Candida albicans 5674) | MIC Candida albicans STY31 (Candida albicans STY31)
2 µg/mL: MIC Candida dubliniensis CBS 7987 [3] | Antifungal activity Saccharomyces cerevisiae ATCC 9763 MIC [8] | MIC Saccharomyces cerevisiae ATCC 9763 [8]
